In patent US20130204009A1, “PROCESS FOR PREPARING BENZOIC ACID ESTERS” (Daiichi Sankyo Company, Limited, priority 2010, published 2013) one finds Emax and EC50 data, which are given here for 6 compounds.

The target in the test is T1, GAL4-PPARγ chimeric receptor (ligand-binding domain of human PPARγ) (Homo sapiens, UniProt P37231).
T1 construct: expressed in transfected cells; host or cells: COS-7 (monkey kidney)
Description: Measurement of PPARγ activation effect/modulator activity (GAL4-PPARγ luciferase reporter assay in COS-7 cells). Type of test: cell-based. The settings on record: for Emax: COS-7, maximum luciferase activity, rosiglitazone positive control = 100%, DMSO control = 0%; for EC50: COS-7 cells transfected with pM-PPARγ and pFR-Luc, concentration giving Emax/2. The procedure: A test was carried out according to the reporter assay method with reference to a report by Kliewer et al. (Journal of Biological Chemistry, 1995, Vol. 270 (22), p. 12953-12956) as a method for measuring the ability of a compound to activate PPARγ (hereinafter PPARγ activation effect/modulator activity). Commercially available reagents and kits were used according to the attached instructions. The details will be shown below.
The ligand-binding domain of human PPARγ (corresponding to about 300 amino acids at the carboxy end) was bound to the DNA-binding domain of the yeast transcription factor GAL4 (corresponding to 147 amino acids at the amino end) with reference to the report by Kliewer et al. to prepare a gene expressing a GAL4-PPARγ receptor.
The plasmid pM-PPARγ obtained by the above operation includes the nucleotide sequence represented by SEQ ID NO: 4 of the Sequence Listing and encodes an amino acid sequence represented by SEQ ID NO: 5 of the Sequence Listing containing amino acids 1 to 147 of the yeast transcription factor GAL4 at the amino end and containing amino acids 175 to 475 of human PPARγ and a stop codon at the carboxy end. The plasmid is a gene that can express a GAL4-PPARγ chimeric receptor in mammalian cells.
The previously acquired plasmid pM-PPARγ and the plasmid pFR-Luc purchased from Stratagene Cloning Systems, Inc. were dissolved in deionised water at a concentration of 1 mg/mL each.
The monkey kidney-derived cell line COS-7 (American Type Culture Collection CRL-1651) was seeded into a 75 cm^2 culture flask and cultured using Dulbecco's modified Eagle's medium containing 10% fetal bovine serum (hereinafter medium) under the conditions of 37° C. and 5% carbon dioxide gas until an approximately 80% confluent state was obtained.
COS-7 cells were transfected with 4.8 micrograms per flask of the plasmid pM-PPARγ and 19.2 μg per flask of the plasmid pFR-Luc using Lipofectamine 2000 transfection reagent (manufactured by Invitrogen Corporation), and the cells were cultured overnight.
On the following day, the cells were harvested by trypsin treatment, suspended in 75 mL of phenol red-free Dulbecco's modified Eagle's medium containing 10% fetal bovine serum, seeded into a white 96-well plate (manufactured by Costar) using the medium in a volume of 95 μL per well, and cultured overnight.
The test compound was dissolved in dimethyl sulfoxide at a concentration of 4 mM. The solution was serially diluted 3.3-fold with dimethyl sulfoxide to prepare solutions of the compound at concentrations up to 400 nM. Dimethyl sulfoxide was prepared for the control group. Rosiglitazone dissolved in dimethyl sulfoxide at a concentration of 4 mM was prepared for the positive control group. They were diluted 20-fold with the medium, and 5 μL of the dilution was added to the wells in which the cells were grown. The concentrations of the test compound treating the cells ranged from 10 μM to 1 nM. After the addition, the cells were cultured overnight.
On the following day, the medium was removed, and Luc Lite (manufactured by PerkinElmer Inc.) was prepared according to the attached document and added at 50 microliters per well. The plate with cells in the Luc Lite was stirred for about 30 minutes. The amount of luminescence in each well was measured as luciferase activity using Analyst (Molecular Devices) for 0.5 second. A dose-dependent curve was drawn.

T1 sequence (P37231 with tags, fused parts or gaps): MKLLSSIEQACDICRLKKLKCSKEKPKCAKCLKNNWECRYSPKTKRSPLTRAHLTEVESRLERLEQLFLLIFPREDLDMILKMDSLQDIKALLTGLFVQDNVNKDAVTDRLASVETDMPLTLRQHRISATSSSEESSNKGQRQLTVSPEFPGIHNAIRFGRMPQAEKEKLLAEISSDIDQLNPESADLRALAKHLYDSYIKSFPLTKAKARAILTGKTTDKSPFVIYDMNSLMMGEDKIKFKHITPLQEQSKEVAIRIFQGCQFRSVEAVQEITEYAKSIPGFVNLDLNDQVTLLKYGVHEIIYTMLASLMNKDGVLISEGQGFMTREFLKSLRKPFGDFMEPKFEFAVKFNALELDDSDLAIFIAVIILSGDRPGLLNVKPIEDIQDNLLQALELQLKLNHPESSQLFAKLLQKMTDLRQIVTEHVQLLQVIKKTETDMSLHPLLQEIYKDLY

Regarding `Cc1cc(F)cnc1Oc1ccc2nc(COc3cccc(C(=O)O)c3)n(C)c2c1` [Reference Example 8, 3-({6-[(5-Fluoro-3-methylpyridin-2-yl)oxy]-1-methyl-1H-benzimidazol-2-yl}methoxy)benzoic acid], the Emax was found to be 100% and the response was half-maximal at 100000 pM (EC50).

The compound `Cc1cnc(Oc2ccc3nc(COc4cccc(C(=O)O)c4)n(C)c3c2)c(F)c1` [Reference Example 9, 3-({6-[(3-Fluoro-5-methylpyridin-2-yl)oxy]-1-methyl-1H-benzimidazol-2-yl}methoxy)benzoic acid] had an Emax of 74% and an EC50 of 43000 pM.

Take `CCc1cnc(Oc2ccc3nc(COc4cccc(C(=O)O)c4)n(C)c3c2)c(C)c1` [Reference Example 11, 3-({6-[(5-Ethyl-3-methylpyridin-2-yl)oxy]-1-methyl-1H-benzimidazol-2-yl}methoxy)benzoic acid]: the maximum response (Emax) worked out at 82% and a half-maximal response (EC50) required 260000 pM.

Regarding `CCc1cc(C)cnc1Oc1ccc2nc(COc3cccc(C(=O)O)c3)n(C)c2c1` [Reference Example 12, 3-({6-[(3-Ethyl-5-methylpyridin-2-yl)oxy]-1-methyl-1H-benzimidazol-2-yl}methoxy)benzoic acid], the Emax is 83% and the EC50 was found to be 71000 pM.

Compound `COc1c(C)cnc(Oc2ccc3nc(COc4cccc(C(=O)O)c4)n(C)c3c2)c1C` [Reference Example 14, 3-({6-[(4-Methoxy-3,5-dimethylpyridin-2-yl)oxy]-1-methyl-1H-benzimidazol-2-yl}methoxy)benzoic acid] gave a maximum response (Emax) of 67% and an EC50 of 69000 pM.

Compound `Cc1cc(C)c(Oc2ccc3nc(COc4cccc(C(=O)O)c4)n(C)c3c2)nc1C` [Reference Example 15, 3-({1-Methyl-6-[(3,5,6-trimethylpyridin-2-yl)oxy]-1H-benzimidazol-2-yl}methoxy)benzoic acid] had an Emax of 94% and an EC50 of 120000 pM.

Usually Emax stands for the maximal effect, on the per cent scale that the assay sets. Broadly, the EC50 is the concentration that produces a half-maximal response.
